# Several values for one entry are separate records, joined by “and”; a condition that tells them apart may be missing. Equal values may be shown once.
# System: Bcl-2
# Test: Bcl-2 expression assay (Western blot)
# Assay type: cell-based, human
# Details: HepG2, 1.13 µM, 24 h
# Description: The expression of BAX and Bcl-2 were evaluated in the HepG2 cells after treatment with 1.13 µM of compound 17a for 24 h. The Western blotting technique was utilized to determine the levels of Bax and Bcl-2 proteins and estimate the Bax/Bcl-2 ratio.
# The expression of apoptotic BAX and antiapoptotic Bcl-2 proteins in the liver HepG2 cells treated with 1.13 μM of 17a was determined using Western blot analysis, as described in the Supplementary Materials. […]
# Casp3 F: 5ʹ‐ […] ‐3ʹ
# Casp3 R: 5ʹ‐ […] ‐3ʹ […]
# β‐actin F: 5ʹ‐[…]‐3ʹ […]
# β‐actin R: 5ʹ‐[…]‐3ʹ […]
# 4.2.6. Bax and Bcl‐2 expression assay
# The expression of BAX and Bcl‐2 proteins were determined using Western blot anal‐ ysis. In brief, HepG2 cells were treated with control or with the synthesized compound 17a (1.13 μM). […] Total protein concentrations in the supernatant were colorimetrically determined using the Pierce 660 nm Protein Assay method (Thermo Fisher Scientific, Rockford, IL), with BSA as the stand‐ ard. […] Means of the detected blot intensities were then quantified, analyzed by the combined Bio‐Rad Image Lab soft‐ ware and their corresponding background subtracted, with normalization to the corre‐ sponding bands density of β‐actin as the sampling loading control. […]
structure (smiles),measurement,setting,value
"O=C1Nc2ccccc2C1=Nc1ccc(C(=O)NNC(=S)Nc2ccccc2)cc1 [Compound 17a, 2-(4-((2-Oxoindolin-3-ylidene)amino)benzoyl)-N-phenylhydrazinecarbothioamide]",decrease of Bcl-2 expression versus control,,1.88 fold and 1.9 fold
same,Protein Expression (Normalized to β-Actin) Bcl-2,control 0.432,0.229
